Assay results as given in patent US11813230B2, “Composition for strengthening skin barrier, moisturizing skin or anti-aging” (COSMAX, INC., priority 2020, dated 2023).

Experiments:
Settings in all cases: 37° C., 48 up to 72 hours, well color change
S. pneumoniae (CX-2) = type: cell-based, Streptococcus pneumoniae
Procedure: (§1) To analyze substance utilization by the isolated strains (Streptococcus pneumoniae, Streptococcus infantis, and Streptococcus mitis), tests were conducted in the following manner. BioLOG GP2 and API 50 were used in determining the substance utilization, and testing was performed using testing methods provided by Omnilog and Biomeriuse. The culturing temperature and media suitable to corresponding strains were selected, and 5 among cluster colonies incubated for 48 hours were taken and suspended in reagents before use. The inoculation amount was 150 μl. As the suspension, components of kits provided by various manufacturers were used. When the strains are yet to be inoculated, the suspension is in a transparent liquid phase. Inoculated plates and strips were incubated at 37° C. for 48 hours, and then the incubation of up to 72 hours was examined. Wells were in a transparent liquid phase at the time of inoculating, but the colors of the wells changed to purple or red, and the color-changed wells were determined to be positive.

S. mitis (CX-8) = test: Substance utilization (BioLOG GP2 / API 50); type: cell-based, Streptococcus mitis
Procedure: as §1

S. infantis (CX-4) = test: Substance utilization (BioLOG GP2 / API 50); type: cell-based, Streptococcus infantis
Procedure: as §1

| Compound | substance utilization by S. pneumoniae (CX-2) (S. pneumoniae (CX-2)) | substance utilization by S. mitis (CX-8) (S. mitis (CX-8)) | substance utilization by S. infantis (CX-4) (S. infantis (CX-4)) |
| --- | --- | --- | --- |
| CC(O)C(=O)[O-].[Na+] (stereo not shown) [1% Sodium Lactate, Sodium Lactate] | + | + | + |
| Dextrin | + | + | + |
| OC[C@H]1O[C@H](OC[C@H]2O[C@H](OC[C@H]3O[C@H](O[C@]4(CO)O[C@H](CO)[C@@H](O)[C@@H]4O)[C@H](O)[C@@H](O)[C@@H]3O)[C@H](O)[C@@H](O)[C@H]2O)[C@H](O)[C@@H](O)[C@H]1O [Stachyose] | + | + | + |
| D-Turanose | + | – | – |
| CO[C@H]1/C=C/O[C@@]2(C)Oc3c(C)c([O-])c4c(O)c(cc(O)c4c3C2=O)NC(=O)/C(C)=C\C=C\[C@H](C)[C@H](O)[C@@H](C)[C@@H](O)[C@@H](C)[C@H](OC(C)=O)[C@@H]1C.[Na+] [Rifamycin SV] | – | + | + |
| O=C1O[C@H]([C@@H](O)CO)[C@@H](O)[C@@H]1O [L-Galactonic Acid Lactone] | – | + | – |
| COc1cc(-c2ccc(-n3nc(-c4ccccc4)n[n+]3-c3ccccc3)c(OC)c2)ccc1-n1nc(-c2ccccc2)n[n+]1-c1ccccc1.[Cl-].[Cl-] [Tetrazolium Blue] | – | + | + |
| OC[C@H]1O[C@H](OC[C@H]2O[C@H](O[C@]3(CO)O[C@H](CO)[C@@H](O)[C@@H]3O)[C@H](O)[C@@H](O)[C@@H]2O)[C@H](O)[C@@H](O)[C@H]1O [D-Raffinose] | + | – | – |
| OC[C@H]1O[C@H](O[C@H]2[C@H](O)[C@@H](O)[C@H](O)O[C@@H]2CO)[C@H](O)[C@@H](O)[C@@H]1O [D-maltose] | + | + | + |
| [Cl-].[Na+] [1% NaCl, NaCl] | + | + | + |
| O=P(O)(O)OC[C@H]1OC(O)(CO)[C@@H](O)[C@@H]1O (stereo partly drawn) [D-Fructose-6-Po4] | – | + | – |
| Pectin | + | + | + |
| OC[C@H]1O[C@H](OCC2O[C@@H](O)[C@H](O)[C@@H](O)[C@@H]2O)[C@H](O)[C@@H](O)[C@H]1O (stereo partly drawn) [D-Melibiose] | + | – | – |
| Tween 40 | + | – | + |
| OC[C@H]1O[C@@H](O[C@H]2[C@H](O)[C@@H](O)[C@H](O)O[C@@H]2CO)[C@H](O)[C@@H](O)[C@@H]1O [D-Cellobiose] | + | + | + |
| D-Salicin | – | + | – |
| O=[Te]([O-])[O-].[K+].[K+] [Potassium Tellurite] | + | + | + |
| [Cl-].[Li+] [Lithium Chloride] | – | + | – |
